What was measured:
[1] = Qualitative solubility screen of Compound 1 Fumarate in solvents; type: physicochemical
Experimental: The salt compound also dissolved in refluxing methylisobutyketone (MIBK) at 15 vol concentration. Consistent with Example 1, the solutions formed were cooled and the IPA, 2-MeTHF and MIBK solutions yielded solid material on cooling. The solid product obtained from MIBK was analyzed by XRPD, TG and ^1H NMR—the XRPD diffractogram is provided as FIG. 1 and the ^1H NMR spectrum is provided as FIG. 2.
Compound 1·Fumarate was soluble in many of the common solvents assessed (predominantly Classes 2 and 3 solvents) at 5.0 vol (200 mg/ml), 10.0 vol, 15.0 vol and 20.0 vol (refer to Table). Solids were isolated on cooling from isopropanol (IPA, 5.0 vol), 2-MeTHF (5.0 vol) and methylisobutylketone (MIBK, 15.0 vol). The products from IPA and 2-MeTHF were gums, and not pursued further.
Compound 1 Fumarate (batch 1, 25 mg, 1 wt) was weighed out in 20 separate vials to qualitatively examine the solubility in an array of diverse solvents. […] If insoluble at 5 vol, the solvent quantity was increased to 10 vol, 15 vol and 20 vol of the respective solvent. The suspensions that occurred upon cooling down were centrifuged and the solvent wet pellets were analysed by XRPD. The insoluble suspensions were additionally worked up for XRPD analysis. The resultant powder patterns were subsequently cross-referenced against the input supplied material.

[2] = Suspension equilibration of compound 1 fumarate at 20 and 40° C.; conditions: 10 vol total
Experimental: Amorphous compound 1 fumarate was subjected to this technique at ambient temperature (20° C.) and at elevated temperature (40° C.), in a diverse range of solvents.
Amorphous compound 1 fumarate underwent suspension equilibration in 19 single solvents at two different temperature set points (20 and 40° C.). The products were isolated by centrifugation and analysed wet by XRPD. After drying, the samples were reanalyzed.
At 20° C., dissolution or gumming was initially observed in the presence of most solvents; after several days, five of the gums had mobilised to give stable suspensions (refer to entries, Table 61). The products were isolated via centrifugation and the wet pellets were analysed by XRPD, oven dried and reanalysed by XRPD, TGA, DSC and ^1H NMR.
The companion screen performed at 40° C., yielded no hits. Consequently, the screen was repeated in the presence of an appropriate polarity modifier (either heptane or tBME), to ensure activity of the solvent was maintained while generating stable suspensions from the onset (refer to Table 62).
Separate portions of compound 1 (ca 50 mg, 1.0 wt.) were charged to separate vessels. The appropriate solvents (e.g. 250 μl, 5.0 vol), as described in Table and Table were charged to the vessels and the mixtures were stirred for several days at their relevant temperatures e.g. 20 to 40° C. After this time the products were cooled, isolated by centrifugation, analyzed as wet pellet by XRPD and dried under reduced pressure at 40° C. and re-analyzed by XRPD and companion analyses for evidence of alternative crystalline forms (FIGS. 74-77).

[3] = Heat-up/cool down (HUCD) crystallization of compound 1 Fumarate in different solvents
[4] = Heptane (7 parts)/2-Methyl THF (3 part)
[5] = Heptane (7 parts)/2-Propanol (3 part)
[6] = Heptane (7 parts)/Acetone (3 part)
[7] = Heptane (7 parts)/Acetonitrile (3 part)
[8] = Heptane (7 parts)/Chlorobenzene (3 part)
[9] = Heptane (7 parts)/Dichloromethane (3 part)
[10] = Heptane (7 parts)/Ethanol (3 part)
[11] = Heptane (7 parts)/Ethyl acetate (3 part)
[12] = Heptane (7 parts)/Ethyl formate (3 part)
[13] = Heptane (7 parts)/Heptane (3 part)
[14] = Heptane (7 parts)/Isopropyl acetate (3 part)
[15] = Heptane (7 parts)/Methanol (3 part)
[16] = Heptane (7 parts)/Methyl acetate (3 part)
[17] = Heptane (7 parts)/Methylethyl ketone (3 part)
[18] = Heptane (7 parts)/Nitromethane (3 part)
[19] = Heptane (7 parts)/Tetrahydrofuran (3 part)
[20] = Heptane (7 parts)/Toluene (3 part)
[21] = Heptane (7 parts)/Water (3 part)
[22] = Heptane (7 parts)/tert-Butylmethyl ether (3 part)

COc1ccc2c(ccn2C[C@@H](C)[NH+](C)C)c1.O=C(O)/C=C/C(=O)O [Compound 1 fumarate, (R)-1-(5-methoxy-1H-indol-1-yl)-N,N-dimethylpropan-2-amine fumarate]
Solid on cooling ([1]; 2-MeTHF, 5 vol): Yes | Solution at reflux ([1]; 2-MeTHF, 5 vol (200 mg/ml), fumarate): ✓ | Solution at reflux ([1]; 2-MeTHF, 5 vol (200 mg/ml), listed as fumarate salt, fumarate): soluble | Solution at 20° C. ([1]; Acetone, 5 vol (200 mg/ml), fumarate): ✓ | Solution at 20° C. ([1]; Acetone, 5 vol (200 mg/ml), listed as fumarate salt, fumarate): soluble | Solution at 20° C. ([1]; Butanol, 5 vol (200 mg/ml), fumarate): ✓ | Solution at 20° C. ([1]; Butanol, 5 vol (200 mg/ml), listed as fumarate salt, fumarate): soluble | Solution at 20° C. ([1]; DCM, 5 vol (200 mg/ml), fumarate): ✓ | Solution at 20° C. ([1]; DCM, 5 vol (200 mg/ml), listed as fumarate salt, fumarate): soluble | Solid on cooling ([1]; Dioxane, 5 vol): No | Solution at 40° C. ([1]; Dioxane, 5 vol (200 mg/ml), fumarate): ✓ | Solution at 40° C. ([1]; Dioxane, 5 vol (200 mg/ml), listed as fumarate salt, fumarate): soluble | Solution at 20° C. ([1]; Ethanol, 5 vol (200 mg/ml), fumarate): ✓ | Solution at 20° C. ([1]; Ethanol, 5 vol (200 mg/ml), listed as fumarate salt, fumarate): soluble | Solid on cooling ([1]; IPA, 5 vol): Yes | Solution at 40° C. ([1]; IPA, 5 vol (200 mg/ml), fumarate): ✓ | Solution at 40° C. ([1]; IPA, 5 vol (200 mg/ml), listed as fumarate salt, fumarate): soluble | Solution at 20° C. ([1]; MEK, 5 vol (200 mg/ml), fumarate): ✓ | Solution at 20° C. ([1]; MEK, 5 vol (200 mg/ml), listed as fumarate salt, fumarate): soluble | Solid on cooling ([1]; MIBK, 10, 15 & 20 vol): Yes | Solution at reflux ([1]; MIBK, 10, 15 & 20 vol): ✓ | Dissolution in refluxing methylisobutyketone (MIBK) ([1]; MIBK, reflux, 15 vol concentration): dissolved | Solution at 20° C. ([1]; MeCN, 5 vol (200 mg/ml), fumarate): ✓ | Solution at 20° C. ([1]; MeCN, 5 vol (200 mg/ml), listed as fumarate salt, fumarate): soluble | Solution at 20° C. ([1]; Methanol, 5 vol (200 mg/ml), fumarate): ✓ | Solution at 20° C. ([1]; Methanol, 5 vol (200 mg/ml), listed as fumarate salt, fumarate): soluble | Solution at 20° C. ([1]; THF, 5 vol (200 mg/ml), fumarate): ✓ | Solution at 20° C. ([1]; THF, 5 vol (200 mg/ml), listed as fumarate salt, fumarate): soluble | Solution at 20° C. ([1]; Water, 5 vol (200 mg/ml), fumarate): ✓ | Solution at 20° C. ([1]; Water, 5 vol (200 mg/ml), listed as fumarate salt, fumarate): soluble | Observations (t = 0 @ 40° C.) [2, 4]: Gum | XRPD (post oven dried) [2, 4]: Pattern #1 | XRPD (wet) [2, 4]: Pattern #1 | Observations (t = 3 d) @ 40° C.) [2, 5]: Suspension | XRPD (post oven dried) [2, 5]: Pattern #1 | XRPD (wet) [2, 5]: Pattern #1 | Observations (t = 0 @ 40° C.) [2, 6]: Gum | Observations (t = 1 d) @ 40° C.) [2, 6]: Gum | Observations (t = 3 d) @ 40° C.) [2, 6]: Gum/oil | Observations (t = 7 d @ 40° C.) [2, 6]: Gum | XRPD (post oven dried) [2, 6]: Pattern #1 | XRPD (wet) [2, 6]: Pattern #1 | Observations (t = 0 @ 40° C.) [2, 7]: Oil (biphasic) | Observations (t = 1 d) @ 40° C.) [2, 7]: Oil (biphasic) | Observations (t = 3 d) @ 40° C.) [2, 7]: Oil (biphasic) | Observations (t = 7 d @ 40° C.) [2, 7]: Oil (biphasic) | Observations (t = 0 @ 40° C.) [2, 8]: Gum | Observations (t = 1 d) @ 40° C.) [2, 8]: Gum | XRPD (post oven dried) [2, 8]: Pattern #1 | XRPD (wet) [2, 8]: Pattern #1 | XRPD (post oven dried) [2, 9]: Pattern #1 | XRPD (wet) [2, 9]: Pattern #1 | Observations (t = 3 d) @ 40° C.) [2, 10]: Suspension | XRPD (post oven dried) [2, 10]: Pattern #1 | XRPD (wet) [2, 10]: Pattern #1 | Observations (t = 0 @ 40° C.) [2, 11]: Gum | Observations (t = 1 d) @ 40° C.) [2, 11]: Gum | Observations (t = 3 d) @ 40° C.) [2, 11]: Gum | Observations (t = 7 d @ 40° C.) [2, 11]: Oil/gum | Observations (t = 3 d) @ 40° C.) [2, 12]: Gum | XRPD (post oven dried) [2, 12]: Pattern #1 | XRPD (wet) [2, 12]: Pattern #1 | Observations (t = 0 @ 40° C.) [2, 13]: Gum | Observations (t = 1 d) @ 40° C.) [2, 13]: Gum | XRPD (post oven dried) [2, 13]: Pattern #1 | XRPD (wet) [2, 13]: Pattern #1 | Observations (t = 0 @ 40° C.) [2, 14]: Gum | XRPD (post oven dried) [2, 14]: Pattern #1 | XRPD (wet) [2, 14]: Pattern #1 | Observations (t = 0 @ 40° C.) [2, 15]: Oil (biphasic) | Observations (t = 1 d) @ 40° C.) [2, 15]: Oil (biphasic) | Observations (t = 3 d) @ 40° C.) [2, 15]: Biphasic (oil) | Observations (t = 7 d @ 40° C.) [2, 15]: Oil (biphasic) | XRPD (post oven dried) [2, 15]: Pattern #1 | XRPD (wet) [2, 15]: Pattern #1 | XRPD (post oven dried) [2, 16]: Pattern #1 | XRPD (wet) [2, 16]: Pattern #1 | Observations (t = 0 @ 40° C.) [2, 17]: Gum | XRPD (post oven dried) [2, 17]: Pattern #1 | XRPD (wet) [2, 17]: Pattern #1 | Observations (t = 0 @ 40° C.) [2, 18]: Oil (biphasic) | Observations (t = 1 d) @ 40° C.) [2, 18]: Oil (biphasic) | Observations (t = 3 d) @ 40° C.) [2, 18]: Oil (biphasic) | Observations (t = 0 @ 40° C.) [2, 19]: Gum | XRPD (post oven dried) [2, 19]: Pattern #1 | XRPD (wet) [2, 19]: Pattern #1 | Observations (t = 0 @ 40° C.) [2, 20]: Gum | Observations (t = 1 d) @ 40° C.) [2, 20]: Gum | XRPD (post oven dried) [2, 20]: Pattern #1 | XRPD (wet) [2, 20]: Pattern #1 | Observations (t = 0 @ 40° C.) [2, 21]: Oil (biphasic) | Observations (t = 1 d) @ 40° C.) [2, 21]: Oil (biphasic) | Observations (t = 3 d) @ 40° C.) [2, 21]: Oil (biphasic) | Observations (t = 7 d @ 40° C.) [2, 21]: Oil (biphasic) | Observations (t = 0 @ 40° C.) [2, 22]: Gum | Observations (t = 1 d) @ 40° C.) [2, 22]: Gum | Observations (t = 3 d) @ 40° C.) [2, 22]: Gum | Observations (t = 7 d @ 40° C.) [2, 22]: Oil/gum | Form XRPD (oven dried) ([3]; Heptane (5 vol) + Dichloromethane 160 μl): Pattern 1 | Form XRPD (oven dried) ([3]; Heptane (5 vol) + Dioxane 240 μl): Pattern 1 | Observations (t = 3 d @ 20° C.) ([3]; Heptane (5 vol) + Ethanol 180 μl): suspension | Observations (t = 0 @ T = 20° C.) ([3]; Heptane (5 vol) + Methylethyl ketone 100 μl): suspension | Form XRPD (oven dried) ([3]; Heptane (5 vol) + tert-Butylmethyl ether 300 μl): Pattern 1 | Observations (t = 3 d @ 20° C.) ([3]; Water (5 vol) + Ethanol 80 μl): solution

Reference: US12319652B2, “Salts and solid forms of (R)-1-(5-methoxy-1H-indol-1-yl)-N,N-dimethylpropan-2-amine” (priority 2021, dated 2025)
